Laboratory results as given in patent US20200354327A1, “COMPOUND HAVING STAT3 INHIBITORY ACTIVITY AND USE THEREOF” (CYTUS H&B CO., LTD., priority 2017, published 2020).

Experiments:
U87-MG cells = assay: Matrigel invasion assay, U87-MG; type: cell-based, human; details: 24 hours, versus DMSO
Procedure: The growth factor-reduced Matrigel was diluted with a serum-free culture solution at a 1:3 ratio, transferred to a 24-well plate, and solidified at 37° C. for 5 hours. The cells were placed in a culture solution containing 1% serum and added to the solidified Matrigel, 600 μl of a culture solution containing 10% serum to which fibronectin was added at a concentration of […] was added thereto, and the cells were cultured for 24 hours. Thereafter, the cells were fixed and stained by adding Diffquick solution thereto and then observed under a Leica Application Suite microscope, and images were taken.

MDA-MB-231 cells = assay: Human tumor cell xenograft, MDA-MB-231; type: in vivo, BALB/c nude mice; details: MDA-MB-231 xenograft, injected directly into the tumor, versus DMSO
Procedure: Male Nude Mouse (BALB/cAnNCrj-nu/nu) was purchased from Charles River Japan Inc. (Shin-Yokohama, Japan). The mouse was bred in a clean room in which the temperature and humidity were constantly controlled. The breeding process was carried out according to the method described in the manual for maintenance of laboratory animals in Seoul National University. U87-MG cells or MDA-MB-231 cells were diluted with PBS, suspended in 100 μl of Matrigel at 25% concentration, and injected into the back of mouse and bred for 6 to 10 weeks. Human tumor growth was measured every other day using a vernier caliper from 2 weeks after cell injection. With regard to the degree of inhibition of human tumor cell formation, 40 μM of ODZ10117 was directly injected into the human tumor on days 0, 3, and 5 from week 4 of tumor cell injection. On the 7th day, the mouse was sacrificed to separate the tumor, and the tumor cell inhibitory efficacy of the drug was measured by being compared with that of the control group treated with 1% DMSO.

**Q.** `Clc1ccc(OCc2noc(C(Cl)(Cl)Cl)n2)c(Cl)c1` [ODZ10117, 3-(2,4-dichloro-phenoxymethyl)-5-trichloromethyl-[1,2,4]oxadiazole] was tested. Which cell invasion (U87-MG cells) did it give?
**A.** significantly decreased cell invasion in both the two cell lines

**Q.** What about the tumor growth (MDA-MB-231 cells) of the same molecule?
**A.** significantly inhibited tumor growth
